From the NIST ThermoML archive (doi:10.1016/j.jct.2012.06.012)

Experiment: xn = mol fraction of the nth substance listed
Settings: Liquid, Vibrating tube method

CCCCCCCCCC [decane] + CCO
Settings | mass density [kg/m3]
313.07 K, 1000 kPa, x2 = 0.9014 | 753.75
313.07 K, 2000 kPa, x2 = 0.9014 | 754.71
313.07 K, 3000 kPa, x2 = 0.9014 | 755.67
313.07 K, 4000 kPa, x2 = 0.9014 | 756.61
313.07 K, 5000 kPa, x2 = 0.9014 | 757.53
313.07 K, 6000 kPa, x2 = 0.9014 | 758.44
313.07 K, 7000 kPa, x2 = 0.9014 | 759.33
313.07 K, 8000 kPa, x2 = 0.9014 | 760.24
313.07 K, 9000 kPa, x2 = 0.9014 | 761.14
313.07 K, 10000 kPa, x2 = 0.9014 | 762.04
313.07 K, 11000 kPa, x2 = 0.9014 | 762.94
313.07 K, 12000 kPa, x2 = 0.9014 | 763.84
313.07 K, 13000 kPa, x2 = 0.9014 | 764.72
313.07 K, 14000 kPa, x2 = 0.9014 | 765.58
313.07 K, 15000 kPa, x2 = 0.9014 | 766.45
313.07 K, 16000 kPa, x2 = 0.9014 | 767.29
313.07 K, 17000 kPa, x2 = 0.9014 | 768.13
313.07 K, 18000 kPa, x2 = 0.9014 | 768.94
313.07 K, 19000 kPa, x2 = 0.9014 | 769.74
313.07 K, 20000 kPa, x2 = 0.9014 | 770.52
313.08 K, 1000 kPa, x2 = 0.1011 | 715.15
313.08 K, 1000 kPa, x2 = 0.4963 | 724.28
313.08 K, 1000 kPa, x2 = 0.7526 | 738.33
313.08 K, 2000 kPa, x2 = 0.1011 | 716.05
313.08 K, 2000 kPa, x2 = 0.4963 | 725.2
313.08 K, 2000 kPa, x2 = 0.7526 | 739.26
313.08 K, 3000 kPa, x2 = 0.1011 | 716.93
313.08 K, 3000 kPa, x2 = 0.4963 | 726.11
313.08 K, 3000 kPa, x2 = 0.7526 | 740.19
313.08 K, 4000 kPa, x2 = 0.1011 | 717.8
313.08 K, 4000 kPa, x2 = 0.4963 | 727
313.08 K, 4000 kPa, x2 = 0.7526 | 741.1
313.08 K, 5000 kPa, x2 = 0.1011 | 718.66
313.08 K, 5000 kPa, x2 = 0.4963 | 727.87
313.08 K, 5000 kPa, x2 = 0.7526 | 741.99
313.08 K, 6000 kPa, x2 = 0.1011 | 719.51
313.08 K, 6000 kPa, x2 = 0.4963 | 728.73
313.08 K, 6000 kPa, x2 = 0.7526 | 742.87
313.08 K, 7000 kPa, x2 = 0.1011 | 720.34
313.08 K, 7000 kPa, x2 = 0.4963 | 729.58
313.08 K, 7000 kPa, x2 = 0.7526 | 743.75
313.08 K, 8000 kPa, x2 = 0.1011 | 721.16
313.08 K, 8000 kPa, x2 = 0.4963 | 730.44
313.08 K, 8000 kPa, x2 = 0.7526 | 744.64
313.08 K, 9000 kPa, x2 = 0.1011 | 721.98
313.08 K, 9000 kPa, x2 = 0.4963 | 731.3
313.08 K, 9000 kPa, x2 = 0.7526 | 745.53
313.08 K, 10000 kPa, x2 = 0.1011 | 722.8
313.08 K, 10000 kPa, x2 = 0.4963 | 732.16
313.08 K, 10000 kPa, x2 = 0.7526 | 746.41
313.08 K, 11000 kPa, x2 = 0.1011 | 723.63
313.08 K, 11000 kPa, x2 = 0.4963 | 733
313.08 K, 11000 kPa, x2 = 0.7526 | 747.29
313.08 K, 12000 kPa, x2 = 0.1011 | 724.45
313.08 K, 12000 kPa, x2 = 0.4963 | 733.86
313.08 K, 12000 kPa, x2 = 0.7526 | 748.17
313.08 K, 13000 kPa, x2 = 0.1011 | 725.26
313.08 K, 13000 kPa, x2 = 0.4963 | 734.7
313.08 K, 13000 kPa, x2 = 0.7526 | 749.03
313.08 K, 14000 kPa, x2 = 0.1011 | 726.06
313.08 K, 14000 kPa, x2 = 0.4963 | 735.54
313.08 K, 14000 kPa, x2 = 0.7526 | 749.89
313.08 K, 15000 kPa, x2 = 0.1011 | 726.85
313.08 K, 15000 kPa, x2 = 0.4963 | 736.35
313.08 K, 15000 kPa, x2 = 0.7526 | 750.73
313.08 K, 16000 kPa, x2 = 0.1011 | 727.63
313.08 K, 16000 kPa, x2 = 0.4963 | 737.16
313.08 K, 16000 kPa, x2 = 0.7526 | 751.56
313.08 K, 17000 kPa, x2 = 0.1011 | 728.39
313.08 K, 17000 kPa, x2 = 0.4963 | 737.95
313.08 K, 17000 kPa, x2 = 0.7526 | 752.38
313.08 K, 18000 kPa, x2 = 0.1011 | 729.13
313.08 K, 18000 kPa, x2 = 0.4963 | 738.72
313.08 K, 18000 kPa, x2 = 0.7526 | 753.17
313.08 K, 19000 kPa, x2 = 0.1011 | 729.85
313.08 K, 19000 kPa, x2 = 0.4963 | 739.47
313.08 K, 19000 kPa, x2 = 0.7526 | 753.95
313.08 K, 20000 kPa, x2 = 0.1011 | 730.55
313.08 K, 20000 kPa, x2 = 0.4963 | 740.21
313.08 K, 20000 kPa, x2 = 0.7526 | 754.7
313.09 K, 1000 kPa, x2 = 0.0937 | 715.17
313.09 K, 2000 kPa, x2 = 0.0937 | 716.07
313.09 K, 3000 kPa, x2 = 0.0937 | 716.95
313.09 K, 4000 kPa, x2 = 0.0937 | 717.82
313.09 K, 5000 kPa, x2 = 0.0937 | 718.68
313.09 K, 6000 kPa, x2 = 0.0937 | 719.53
313.09 K, 7000 kPa, x2 = 0.0937 | 720.36
313.09 K, 8000 kPa, x2 = 0.0937 | 721.18
313.09 K, 9000 kPa, x2 = 0.0937 | 721.99
313.09 K, 10000 kPa, x2 = 0.0937 | 722.79
